Assay results as given in patent US6495376B1, “Methods and compositions for regulating protein-protein interactions” (Beth Israel Deaconess Medical Center, priority 1999, dated 2002).
Values joined by “and” are separate entries in the source; they are usually repeats but may differ in a detail not shown here. Equal entries are not always repeated. “Also recorded” adds a separate entry of the source. Where two headings read alike, the source gives them in different places.

Experiments:
[1] = target: WFYSPFLE; test: Fluorescence anisotropy binding to fluorescein-labeled nonphosphorylated control peptide; details: for WFYSPFLE Kd: nonphosphorylated peptide
[2] = test system: phosphorylated tau; test: GST-Pin1 pulldown of tau; assay type: binding; details: for binding to Cdc2 phosphorylated tau: tau phosphorylated by Cdc2 in vitro
Excerpt: Pin1 binds and regulates the function of a defined subset of mitotic phosphoproteins by interacting with conserved phosphorylated Ser/Thr-Pro motifs that are also recognized by MPM-2, a mitosis-specific, phosphorylation-dependent monoclonal antibody (mAb) (Yaffe, M. B. et al., Science 278:1957-1960 (1997); Shen, M. et al., Genes Dev. 12:706-720 (1 998)). Tau is an MPM-2 antigen phosphorylated on multiple Ser/Thr-Pro motifs during mitosis (Illenberger, S. et al., Mol Biol Cell 9:1495-1512 (1998)). Experiments were undertaken to determine whether Pin1 binds tau. Tau isoform was either synthesized by in vitro transcription and translation in the presence of ^35S-Met or produced in bacteria as an N-terminal His-tagged protein, followed by purification using NTA-Ni columns (Yaffe, M. B. et al., Science 278:1957-1960 (1997); Shen, M. et al., Genes Dev. 12:706-720 (1998)). To generate interphase- and mitosis-specific phosphorylated form of tau, tau was incubated with Xenopus interphase and mitotic extracts, respectively (Shen, M. et al., Genes Dev. 12:706-720 (1998)). To prepare Cdc2 phosphorylated tau, purified recombinant tau was incubated with purified cyclin B/Cdc2 (UBI) for 6 to 12 hr at room temperature in a buffer containing 500 μM cold ATP, plus trace [^32P]-ATP in some experiments, (Vincent, I. et al., J Neurosci 17:3588-3598 (1997)).
Pin1 interactions with tau in AD brains were examined using a GST-Pin1 pulldown assay (Shen, M. et al., Genes Dev. 12:706-720 (1998)). Glutathione beads containing GST or GST-Pin1 were incubated with normal or AD brain extracts, or PHFs purified (Vincent, I. J. and Davies, P. Proc Natl Acad Sci USA 89:2878-2882 (1992)), and proteins associated with the beads were subjected to immunoblotting analysis using CP27, which recognizes all forms of tau. Recombinant and mutant Pin1 proteins were produced as N-terminal GST or His-tagged fusion proteins (Shen, M. et al., Genes Dev. 12:706-720 (1998)). PHFs were purified by immunoaffinity chromatography (Vincent, I. J. and Davies, P. Proc Natl Acad Sci USA 89:2878-2882 (1992)).
To determine whether Pin1 interacts with pT231-tau, GST-Pin1 beads were used to isolate tau from AD brain extracts or PHFs and T231 phosphorylation detected using CP9. Tau isolated by Pin1 beads was strongly immunoreactive with CP9. […] Thus, Pin1 binds pT231-tau through its WW-domain.

[3] = test system: WFYpSPFLE (Pintide); test: Fluorescence anisotropy (polarization) binding to fluorescein-labeled phosphorylated Pintide analogue; details: for binding to Pintide (in words): fluorescence anisotropy
Excerpt: To determine the affinity of Pin1, and its WW or PPIase domain for phosphopeptides, peptides were labeled with fluorescein and their interactions with Pin1 measured using quantitative fluorescence anisotrophy. To prevent nonspecific labeling, a Pintide analogue (WFYpSPFLE) SEQ ID NO: 9 was used, which binds Pin1 with a high affinity based on the peptide library screen as described by (Lu, K. P. et al., U.S. Ser. No. 60/058,164 (1997), the teachings of which are incorporated herein in their entirety.
Pintide and its nonphosphorylated counterpart were synthesized and incubated with GST-Pin1 or the GST-WW-domain of Pin1 in a binding buffer, using established procedures (Shen, M. et al., Genes & Dev 12:706 (1998)). After a 1 hr incubation, mitotic HeLa cell extracts were added and subjected to GST pull down experiments, followed by immunoblotting analysis using the MPM-2 antibody. To obtain semi-quantitative data, films of immunoblots were scanned at the region of 55 kDa, the major Pin1-binding protein, and data analyzed using ImageQuan (ScanJet II CX). The peptide binding constants were measured using a fluorescence polarization assay (Jiskoot, W. et al., Anal Biochem 196:421 (1991)). Peptides were fluorescein labeled at the N-terminus using the Fluorescein Amine Labeling Kit (Pan Vera Corp.) and purified by TLC according to the manufacturer's […]. To prevent nonspecific labeling, a Pintide analogue (WFYpSPFLE) SEQ ID NO: 8 and the nonphosphorylated control were used. Various concentrations of Pin1 and its mutant proteins were incubated with 0.1 μM of the labeled peptides in a binding buffer containing 50 mM HEPES, pH 7.4, 100 mM NaCl, 2% glycerol. Fluorescence polarization values were obtained using a Pan Vera Beacon 2000 system, as described by the manufacturer.

[4] = high affinity binding site, read-out: WFYpSPFLE Kd(μM) High affinity

phosphorylated tau, sequence (P10636 45-216 isoform P10636-2 limits assumed): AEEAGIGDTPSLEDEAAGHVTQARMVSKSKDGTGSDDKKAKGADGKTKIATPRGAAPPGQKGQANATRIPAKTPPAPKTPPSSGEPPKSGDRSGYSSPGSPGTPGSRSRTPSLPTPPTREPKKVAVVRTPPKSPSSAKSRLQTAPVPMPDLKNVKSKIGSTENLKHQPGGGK

Substance	WFYSPFLE Kd [1]	binding to tau of brain extracts ([2]; AD brain extracts, PHFs or age-matched normal brain extracts)	binding to tau incubated with Xenopus extracts ([2]; interphase or mitotic extracts)	binding to Cdc2 phosphorylated tau [2]	binding to Pintide (in words) [3]	Kd [3, 4]	Kd ([3]; low affinity binding site, read-out: WFYpSPFLE Kd(μM) Low affinity) [µM]	Kd (μM) Pintide nonphosphorylated WFYSPFLE ([1]; GST-WW-domains, N.B., not binding detected)	Kd ([3]; GST-WW-domains, fluorescein-labeled peptide, average of three independent experiments, read-out: Kd (μM) Pintide WFYpSPFLE) [µM]
Pin1: wild-type human prolyl isomerase (PPIase) Pin1 with N-terminal WW-domain; tag cleaved in Table 2	No binding was detected; also recorded: Not binding	did not bind tau in age-matched normal brain extracts	did bind tau that was phosphorylated by mitotic extracts	bound Cdc2 phosphorylated tau	bound Pintide	1.2 µM	11	–	–
Pin1 WW-domain: N-terminal WW-domain (amino acids 1-54) of Pin1 (MADEEKLPPGWEKRMSRSSGRVYYFNHITNASQWERPSGNSSSGGKNGQGEPAR; left off: a dimerising Fc or GST)	No binding was detected; also recorded: Not binding	–	–	bound Cdc2 phosphorylated tau	bound Pintide	1.2 µM and 1 µM	–	N.B.	1
